assay: Human HepG2 cell viability assay in 384 well format; type: toxicity, cell-based; design: dose 125 nL, time 70.5 hour; cytotoxicity at 70.5 h: concentration not given beside the values; conditions: HepG2 cells, read-out: Inhibition

Compound	cytotoxicity at 70.5 h [%]
NC(=O)CN1CCCN(C(=O)Cc2ccc3c(c2)OCO3)CC1	-2.14
CC(C)CC(=O)N1CC(=O)N(Cc2ccco2)CC(O)C1 (configuration not stated)	8.54
CN(Cc1cccnc1)C(CO)c1cccc(Br)c1 (configuration not stated)	-7.61
CCc1nsc(NC2CCCn3nc(COC)nc32)n1 (configuration not stated)	-3.94
COc1ccc(Oc2ncccc2NC(=O)N2CC[C@H](O)C2)cc1	-1.8
Cn1cnnc1C1CCN(C(=O)CCCOc2ccccc2)CC1	-0.661
COCCOC1CCN(C(=O)NCc2cc(C)oc2C)CC1	-8.46
CC(=O)Nc1nc(C(=O)N2CCCC2Cn2cc(C)cn2)cs1 (configuration not stated)	-10.5
Cc1cc(NC(=O)NCCCSc2nncn2C)no1	-11.7
COc1ccc(Br)cc1CC(=O)Nc1cc(C)n[nH]1	25.5
NC(=O)Cn1c(CO)cnc1SCC(=O)NCc1ccccc1Cl	15.7
CC(C(=O)N1CCC(Nc2cccnn2)CC1)n1cccn1 (configuration not stated)	20.4
CCc1ccc(CN2CC[C@H]3C[C@H](c4nnc(C)[nH]4)O[C@@H]3C2)o1	-1.93
O=C1CC[C@@H]2[C@@H](CCN2S(=O)(=O)C2CC2)N1CC1CC1	18.2
COc1ccc(OC)c(C(=O)Nc2cccnc2-n2cncn2)c1	-10.9
Cn1cc(CNC2CCC(O)CC2)c(-c2cc3ccccc3o2)n1 (configuration not stated)	-6.96
NC(=O)CCOc1nc(-c2ccccc2Cl)no1	16.5
Cc1nc(N2CCCC(C)C2)nc2cc(S(C)(=O)=O)ccc12 (configuration not stated)	-2.18
Cc1cccc(C(C)C)c1NC(=O)CN(C)C(C)c1nccs1 (configuration not stated)	-9.73

Compound	cytotoxicity at 70.5 h [%]
COCC1c2nnn(C)c2CCN1C(=O)COc1ccccc1C (configuration not stated)	-4.54
OC1(CN2CCCCC2)CCN(c2cc(C(F)(F)F)ccn2)C1 (configuration not stated)	-22.3
COc1cc(N2C[C@@H](C)[C@](O)(C3CC3)C2)nc(N)n1	-3.32
CN(C)Cc1cc(=O)n2c(n1)CN(C(=O)c1ccc[nH]1)CCC2	-2.94
N#Cc1cccc(CN2C[C@@H](F)[C@@H](OCc3nc4cnccc4[nH]3)C2)c1	11.4
Cn1cc2c(n1)C(COCC1CC1)CN(Cc1ccsc1)C2 (configuration not stated)	-3.4
Cc1cc(C(=O)N2CCn3nc(C(=O)NC4CC4)cc3C2)nc(C)n1	-2.56
CC(=O)N[C@H]1CCO[C@@H](c2cccc(NC(=O)Cc3ccccc3)c2)C1	10.3
CCCn1ncc(-c2ccnc(N[C@@H]3C[C@@H]4CC[C@H]3C4)n2)c1C	-2.1
CC(C)n1cnnc1C1CCCN(S(=O)(=O)c2c[nH]cn2)C1 (configuration not stated)	-78.9
CCCc1nc(C)cc(N2CCC3(CCC(=O)N(C4CC4)C3)CC2)n1	-5.2
Cc1cc(=O)n(CC(=O)NCC2CCCO2)c(-c2ccc(F)cc2)n1 (configuration not stated)	13
Cc1c(C(=O)O)sc2nc(Cc3ccccc3)nc(N)c12	-3.73
c1ccc(CN2C[C@@H]3CCCO[C@@H]3[C@H](Nc3ccccn3)C2)nc1	-7.21
NC(=O)c1ccc(CNC(=O)NCc2cc[nH]n2)cc1	-12.2
COc1c(CNCc2ccccc2Cn2ccnc2)c(C)nn1C	-0.234
COc1ncc(-c2nccn2-c2ccccc2CN2CCOCC2)cn1	-7.32
Cc1cccc(CC(=O)N2CCCC(c3n[nH]c4nccnc34)C2)c1 (configuration not stated)	14.6
CCCc1ccc(S(=O)(=O)Nc2ccc(=O)n(C)c2)cc1	22.8

Compound	cytotoxicity at 70.5 h [%]
O=C(NCC1CC2(CO1)CN(c1nncs1)C2)C1CCC1 (configuration not stated)	-3.65
CN(C)CCn1ccc2ccc(NC(=O)c3ccncc3F)cc21	-6.52
Cc1cc(N2CCN(C(=O)c3cc(Cl)c[nH]3)CC2)nc(C(C)C)n1	-7.83
O=C(NC(Cc1ccsc1)c1nccs1)C1CCOCC1 (configuration not stated)	-14.6
Cc1nc(COc2ccc(CNCCn3cccn3)cc2)cs1	4.56
Cc1cc(CN(C)C(=O)C2CCCN(C(N)=O)C2)no1 (configuration not stated)	-5.82
O=S(=O)(CCNCCn1cccn1)c1ccccc1	-18.7
O=C(NCCc1ccc2c(c1)OCO2)C1CCCN(Cc2ccco2)C1 (configuration not stated)	1.41
CN(C)C1(C(=O)NC2CCC(Oc3ccccc3C#N)CC2)CCC1 (configuration not stated)	-4.33
Cc1ccccc1CN1CCCC1c1cncc(Nc2nncs2)n1 (configuration not stated)	-13.3
O=C1CCSCC(C(=O)N2CCCCC2)N1 (configuration not stated)	-0.797
Cc1oc(CNC(=O)Cc2ccccc2Cl)cc1C(=O)O	-7.56
CC(C)Cn1ccnc1CNC(=O)NC(C)c1nccs1 (configuration not stated)	1.43
CSc1cccc(CN(C)C(=O)c2cccc(C3CCCNC3)c2)c1 (configuration not stated)	-2.36
Cc1c(C(=O)NCC(C)C)nnn1-c1cccc2c1CCN(CCO)C2	-2.54
CCCN1C[C@H]2CC[C@@H]1CN(c1nnc(C(C)C)s1)C2	27.1
COc1ccc(-n2cccn2)c(CN2CCOCC(CN(C)C)C2)c1 (configuration not stated)	18.8
Cc1cc(OCC(=O)N2CCCC(c3noc(C(C)C)n3)C2)no1 (configuration not stated)	-1.68
CN(C)C(CNC(=O)N(Cc1ccco1)C1CC1)c1cccs1 (configuration not stated)	-11.4
